From patent publication US12428413B2 (CHDI Foundation, Inc., priority 2019, dated 2025)

Experiments:
[1] = tested on: cellular ROCK activity (cofilin phosphorylation at Ser3) in A7r5 rat smooth muscle cells; assay: Cellular ROCK activity: cofilin (Ser3) phosphorylation, In-Cell Western assay; type: cell-based; conditions: Rattus norvegicus, A7R5, 1 h, 1 hour compound incubation, phospho-cofilin (Ser3), read-out: CELL_IC50
Method: The potency of Rho-associated protein kinase (ROCK) inhibitors was quantified by measuring cofilin phosphorylation levels at Serine 3 (Ser3) as a measure of cellular ROCK activity by In-Cell Western assay. […] The assay plate was imaged and quantified on the Odyssey imager (LICOR Biosciences).
ROCK inhibitor compound plate preparation. […] Stock compounds and control are added directly to ECHO plate (Labcyte) by Janus.
A7r5 cell culture and plating. A7r5 cells were cultured according to standard cell culture protocols in A7r5 growth media (DMEM with Glutamax and 10% FBS). […] 45 μl of re-suspended A7r5 cells were plated at 3000 cells/well in a sterile, μclear, black, F-bottom, 384-well microplate (Greiner bio-one). Seeded cells allowed to settle in wells on the bench for 1 hour before incubation at 37° C., 5% CO2 overnight.
Assay reagent and antibody preparations. Wash buffer was prepared by addition of Tween-20 to Dulbecco's Phosphate Buffered Saline (DPBS) (1×) without calcium and magnesium to make 1% Tween-20 as final concentration. Blocking buffer was prepared by addition of TritonX-100 to SeaBlock buffer (ThermoFisher) to make 0.3% TritonX-100 as final concentration. […] Secondary antibody mix was prepared by diluting donkey anti-rabbit 800CW antibody (LICOR Biosciences) 1:1000 in SeaBlock buffer.
Assay procedure. Compound plate was diluted by addition of 19 μl/well compound dilution buffer (DMEM with Glutamax) using 125 μl 16-channel Matrix electronic pipette. 5 μl diluted compound was stamped from compound plate to assay plate containing A7r5 cells using Bravo (384-well head from Agilent) liquid handler and incubated at 37° C., 5% CO2 for 1 hour. Cells were fixed by addition of 5 μl 37% formaldehyde using 125 μl 16-channel Matrix electronic pipette and incubation for 20 min at room temperature. The assay plate was washed 5× with 60 μl/well wash buffer. […] Next, the assay plate was sealed, centrifuged at 1000 rpm for 5 seconds and incubated at 4° C. overnight on an orbital shaker at 300 rpm. […] The assay plate was centrifuged at 1000 rpm for 5 seconds and incubated on an orbital shaker at 300 rpm for 60 min at room temperature. Finally, assay plate was washed and wells left empty before measurement of 700 nm and 800 nm fluorescence intensities on Odyssey imager set at 4.0 mm focus offset.

[2] = target: human catalytic domain ROCK II protein (amino acids 5-554) with a N-terminal GST tag (Homo sapiens, UniProt O75116); assay: biochemical
human catalytic domain ROCK II protein (amino acids 5-554) with a N-terminal GST tag, sequence (O75116 5-554): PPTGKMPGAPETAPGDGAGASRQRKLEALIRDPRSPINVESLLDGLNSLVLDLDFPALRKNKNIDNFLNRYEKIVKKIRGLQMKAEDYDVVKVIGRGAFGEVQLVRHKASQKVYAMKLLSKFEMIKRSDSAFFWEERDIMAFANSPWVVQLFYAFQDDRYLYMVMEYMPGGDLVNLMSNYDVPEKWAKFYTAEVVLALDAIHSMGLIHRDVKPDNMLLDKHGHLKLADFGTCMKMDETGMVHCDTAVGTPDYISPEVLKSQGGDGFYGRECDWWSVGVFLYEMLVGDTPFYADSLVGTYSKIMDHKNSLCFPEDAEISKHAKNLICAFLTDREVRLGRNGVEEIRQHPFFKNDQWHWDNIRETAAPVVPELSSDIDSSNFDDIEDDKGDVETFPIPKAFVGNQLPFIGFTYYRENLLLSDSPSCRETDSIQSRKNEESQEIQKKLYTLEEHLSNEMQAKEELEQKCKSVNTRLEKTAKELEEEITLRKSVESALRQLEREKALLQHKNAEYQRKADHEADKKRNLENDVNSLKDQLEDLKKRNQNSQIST

Question: Which results are given for `COc1cccc(CN2CC[C@H]3CN(c4ccncc4F)CCN3C2=O)c1` [Example 88, (S)-2-(3-Fluoropyridin-4-yl)-7-(3-methoxybenzyl)octahydro-6H-pyrazino[1,2-c]pyrimidin-6-one]?
Answer: IC50 [1]: 3800 nM; IC50 [2]: 362 nM

Question: `COc1cccc([C@@H](C)NC(=O)N2[C@H](C)CN(c3ccnc(F)c3)C[C@H]2C)c1` [Example 15, (2R,6R)-4-(2-Fluoropyridin-4-yl)-N—((R)-1-(3-methoxyphenyl)ethyl)-2,6-dimethylpiperazine-1-carboxamide] was tested. Which IC50 [1] did it give?
Answer: The IC50 was 1390 nM.

Question: What about the IC50 [2] of the same molecule?
Answer: The IC50 was 75.9 nM.

Question: For `COc1cccc([C@@H](C)NC(=O)N2CCN(c3ccncc3Cl)C[C@H]2C)c1` [Example 155], which IC50 [1] is on record?
Answer: The IC50 was 42.2 nM.

Question: What about the IC50 [2] of the same molecule?
Answer: Its IC50 is 2.7 nM.

Question: Which results are given for `O=C(NCc1cccc2ncoc12)N1CCN(c2ccncc2F)CC1` [Example 39, N-(Benzo[d]oxazol-7-ylmethyl)-4-(3-fluoropyridin-4-yl)piperazine-1-carboxamide]?
Answer: IC50 [1]: 559 nM; IC50 [2]: 54.6 nM

Question: Which IC50 [1] does the source give for `C[C@@H]1CN(c2ccncc2F)CCN1C(=O)N[C@H](C)c1cccc2c1CC(C)(C)O2` [Example 57, (R)—N—((R)-1-(2,2-Dimethyl-2,3-dihydrobenzofuran-4-yl)ethyl)-4-(3-fluoropyridin-4-yl)-2-methylpiperazine-1-carboxamide] here?
Answer: The IC50 was 39.1 nM.

Question: And the IC50 [2]?
Answer: The IC50 was 5 nM.

Question: How did the IC50 [1] turn out when `C[C@@H]1CN(c2ccncc2F)CCN1C(=O)N[C@H](C)c1cccc2occc12` [Example 142] was run?
Answer: The IC50 was 9.1 nM.

Question: And the IC50 [2]?
Answer: Its IC50 is 2.6 nM.

Question: Which IC50 [1] does the source give for `Cc1cnc2cccc([C@H](C)NC(=O)N3CCN(c4ccncc4F)C[C@H]3C)n12` [Example 66, (R)-4-(3-Fluoropyridin-4-yl)-2-methyl-N—((S)-1-(3-methylimidazo[1,2-a]pyridin-5-yl)ethyl)piperazine-1-carboxamide] here?
Answer: Its IC50 is 1270 nM.

Question: And the IC50 [2]?
Answer: The IC50 was 297 nM.

Question: `C[C@@H]1CN(c2ccncc2F)CCN1C(=O)N[C@H](C)c1cccc2c1CCO2` [Example 141] was tested. Which IC50 [1] did it give?
Answer: The IC50 was 1.7 nM.

Question: What about the IC50 [2] of the same molecule?
Answer: The IC50 was 1.8 nM.

Question: `COc1ccc(Cl)c([C@@H](C)NC(=O)N2CCN(c3ccnc(F)c3)C[C@H]2C)c1` [Example 3, (R)—N—((R)-1-(2-Chloro-5-methoxyphenyl)ethyl)-4-(2-fluoropyridin-4-yl)-2-methylpiperazine-1-carboxamide] was tested. Which IC50 [1] did it give?
Answer: The IC50 was 2410 nM.

Question: And the IC50 [2]?
Answer: Its IC50 is 59.9 nM.

Question: Which results are given for `COc1cccc([C@@H](C)NC(=O)N2CCN(c3ccncc3F)CC2C)c1` (stereo partly shown) [Example 154]?
Answer: IC50 [1]: 60.2 nM; IC50 [2]: 19.6 nM

Question: What does the source list for `C[C@@H]1CN(c2ccnc(F)c2)CCN1C(=O)N[C@H](C)c1cccc2c1OCO2` [Example 12, (R)—N—((R)-1-(Benzo[d][1,3]dioxol-4-yl)ethyl)-4-(2-fluoropyridin-4-yl)-2-methylpiperazine-1-carboxamide]?
Answer: IC50 [1]: 200 nM; IC50 [2]: 11.5 nM

Question: What does the source list for `O=C(NCc1cccc(OC(F)F)c1)N1CCN(c2ccncc2F)CC1` [Example 129]?
Answer: IC50 [1]: 3540 nM; IC50 [2]: 84.5 nM

Question: How did the IC50 [1] turn out when `COc1cccc([C@@H](C)OC(=O)N2CCN(c3ccncc3F)C[C@H]2C)c1` [Example 46, (R)-1-(3-Methoxyphenyl)ethyl (R)-4-(3-fluoropyridin-4-yl)-2-methylpiperazine-1-carboxylate] was run?
Answer: Its IC50 is 295 nM.

Question: And the IC50 [2]?
Answer: The IC50 was 3.9 nM.

Question: Which IC50 [1] does the source give for `COc1cccc([C@@H](C)NC(=O)N2CCN(c3ccncc3F)C[C@@H]2C)c1` [Example 133] here?
Answer: Its IC50 is 2440 nM.

Question: What about the IC50 [2] of the same molecule?
Answer: Its IC50 is 167 nM.

Question: Which results are given for `Cc1cnc2cccc([C@@H](C)NC(=O)N3CCN(c4ccncc4F)CC3)n12` [Example 34, (R)-4-(3-fluoropyridin-4-yl)-N-(1-(3-methylimidazo[1,2-a]pyridin-5-yl)ethyl)piperazine-1-carboxamide]?
Answer: IC50 [1]: 104 nM; IC50 [2]: 7.5 nM

Question: With `C[C@@H](NC(=O)N1CCN(c2ccnc(F)c2)[C@@H](C)C1)c1cccc2occc12` [Example 119] as the molecule, how does the IC50 [1] read?
Answer: The IC50 was 411 nM.

Question: And the IC50 [2]?
Answer: The IC50 was 10 nM.

Question: Which IC50 [1] does the source give for `COc1cccc(CN2C[C@@H]3CN(c4ccncc4F)CCN3C2=O)c1` [Example 86, (S)-7-(3-Fluoropyridin-4-yl)-2-(3-methoxybenzyl)hexahydroimidazo[1,5-a]pyrazin-3(2H)-one] here?
Answer: The IC50 was no less than 5000 nM.

Question: What about the IC50 [2] of the same molecule?
Answer: Its IC50 is 3210 nM.
